Results from patent US8324280B2, “Treatment of prostate cancer with DDC inhibitor” (The University of British Columbia, priority 2008, dated 2012).

What was measured:
[1] = system: LNCaP-Vector control xenografts; assay: LNCaP-Vector control tumour xenografts with carbidopa treatment; type: in vivo, mice; conditions: 25 mg/kg intraperitoneally daily, Dox, endogenous DDC only
Method: LNCaP-DDC and LNCaP-Vector control cells were inoculated subcutaneously (s.c.), after resuspension in 0.1 mL of Matrigel (Becton Dickinson Labware), into two flank regions (2.5×10^6 cells/site) of 6 to 8 week old male athymic nude mice (Harlan Sprague Dawley, Inc.) via a 27-gauge needle under halothane anesthesia. Tumour volume and serum PSA measurements (blood collected from the tail vein) were performed once per week after tumours became palpable. PSA levels were measured by ELISA (ClinPro International) and tumour size was calculated by the formula; length×width×depth×0.5236. Once serum PSA values reached 75-100 ng/mL, mice in both the LNCaP-DDC and LNCaP-Vector control groups were given Dox-treated water (200 μg/mL) and treated with or without carbidopa. Carbidopa was purchased from Sigma and dissolved in DMSO. The solution was diluted in PBS to a final concentration of 10% DMSO and sterilized through a 0.2 μm filter. Carbidopa solution was injected intraperitoneally into half of the mice (25 mg per kg of body weight) for the +carbidopa groups, while the remaining mice received vehicle injections consisting of 10% DMSO in PBS (−carbidopa groups). Injections were carried out daily for the duration of the experiment. […] PSA velocity and tumour growth rate differences were determined by one-way ANOVA and Tukey's multiple comparison test. […]

DU 145 = conditions: cited from earlier work
C4-2 xenografts = assay: Androgen-independent C4-2 tumour xenografts in pre-castrated mice; type: in vivo
Method: Parental C4-2 cells were inoculated subcutaneously (s.c.), after resuspension in 0.1 mL of Matrigel (Becton Dickinson Labware), into two flank regions (2.5×10^6 cells/site) of 6 to 8 week old castrated (to ensure tumors will be androgen-independent) male athymic nude mice (Harlan Sprague Dawley, Inc.) via a 27-gauge needle under halothane anesthesia. Tumour volume and serum PSA measurements (blood collected from the tail vein) were performed once per week after tumours became palpable. PSA levels were measured by ELISA (ClinPro International) and tumour size was calculated by the formula; length×width×depth×0.5236. Once serum PSA values reached 75-100 ng/mL, mice were treated with or without carbidopa. Carbidopa was purchased from Sigma and dissolved in DMSO. The solution was diluted in PBS to a final concentration of 10% DMSO and sterilized through a 0.2 μm filter. Carbidopa solution was injected intraperitoneally into half of the mice (25 mg per kg of body weight) for the +carbidopa groups, while the remaining mice received vehicle injections consisting of 10% DMSO in PBS (−carbidopa groups). Injections were carried out daily for the duration of the experiment. Each animal group contained 2-3 mice. PSA measurements were used to calculate PSA velocity and volume measurements were used to determine the tumour growth rate for all groups with linear regression slope analysis (see Statistical Analysis below). PSA velocity was defined as the increase in PSA level (normalized to pre-treatment value set at 100%) divided by number of days that PSA was reliably measurable (21 days). […] All animal procedures were performed according to the guidelines of the Canadian Council of Animal Care and with appropriate institutional certification. C4-2 xenograft tumour volume and PSA values (−/+carbidopa) were used for linear regression slope analysis to determine PSA velocity and tumour growth rate with GraphPad Prism 4, version 4.03. PSA velocity and tumour growth rate differences were determined using the Student's t-test.

C[C@@](Cc1ccc(O)c(O)c1)(NN)C(=O)O [carbidopa, α-Methyl-dopahydrazine]
PSA velocity (rate of PSA production) ([1]; over 35 days): 7.2±1 | tumour growth rate ([1]; over 49 days): 9.8±2 | effect on proliferation (DU 145): did not affect proliferation | reduction of tumour growth rate versus control (C4-2 xenografts; 21 days): 2.1 fold | decrease in PSA velocity versus control non-treated (C4-2 xenografts; over 21 days): 4.1 fold | tumour growth rate (C4-2 xenografts; pre-castrated mice, 25 mg/kg i.p. daily, 21 days): 5.7±0.6 | PSA velocity (rate of PSA production) (C4-2 xenografts; pre-castrated mice, 25 mg/kg i.p. daily, over 21 days): 4.7±2
